# Data from the supplement of paper PMC10307832.
# Key:
# Experiment in all cases: relative viability (nuclei count vs DMSO), 5 days (fraction); higher = more cells survive
# XMD8-85 + Decitabine = compound: CN1CCN(CC1)C2=CC(=C(C=C2)NC3=NC=C4C(=N3)N(C5=CC=CC=C5C(=O)N4C)C)OC [XMD8-85] + Nc1ncn([C@H]2C[C@H](O)[C@@H](CO)O2)c(=O)n1 [Decitabine] (partner 2 µM)
# In short: (§1)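 Cells from lung cancer lines were seeded into 1536-well plates and, one day later, dosed by pin tool. Treatments were either a single drug or a fixed dose of an anchor drug with five library-drug doses (not always all listed) in √10 steps. After 5 days, nuclei were stained in a one-step fixation (final 0.05% Triton X-100, 1% formaldehyde, 1 ug/ml Hoechst) and counted on 4× images, and relative viability is the treated-to-vehicle nuclei ratio, as the median of duplicate plates.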
# XMD8-85 + Vorinostat = compound: CN1CCN(CC1)C2=CC(=C(C=C2)NC3=NC=C4C(=N3)N(C5=CC=CC=C5C(=O)N4C)C)OC [XMD8-85] + O=C(CCCCCCC(=O)Nc1ccccc1)NO [Vorinostat] (partner 1 µM)
# In short: as §1
# 4EGI-1 + Lapatinib = compound: O=C(O)C(Cc1ccccc1[N+](=O)[O-])=NNc1nc(-c2ccc(Cl)c(Cl)c2)cs1 (mixture of isomers) [4EGI-1] + CS(=O)(=O)CCNCc1ccc(-c2ccc3ncnc(Nc4ccc(OCc5cccc(F)c5)c(Cl)c4)c3c2)o1 [Lapatinib] (partner 2 µM)
# In short: as §1
# 4EGI-1 + Alpelisib = compound: O=C(O)C(Cc1ccccc1[N+](=O)[O-])=NNc1nc(-c2ccc(Cl)c(Cl)c2)cs1 (mixture of isomers) [4EGI-1] + Cc1nc(NC(=O)N2CCC[C@H]2C(N)=O)sc1-c1ccnc(C(C)(C)C(F)(F)F)c1 [Alpelisib] (partner 2 µM)
# In short: as §1
Cell Line,relative viability (XMD8-85 + Decitabine; first compound 0.08 µM),relative viability (XMD8-85 + Decitabine; first compound 0.253 µM),relative viability (XMD8-85 + Decitabine; first compound 0.8 µM),relative viability (XMD8-85 + Decitabine; first compound 2.53 µM),relative viability (XMD8-85 + Decitabine; first compound 8 µM),relative viability (XMD8-85 + Vorinostat; first compound 0.08 µM),relative viability (XMD8-85 + Vorinostat; first compound 0.253 µM),relative viability (XMD8-85 + Vorinostat; first compound 0.8 µM),relative viability (XMD8-85 + Vorinostat; first compound 2.53 µM),relative viability (XMD8-85 + Vorinostat; first compound 8 µM),relative viability (4EGI-1 + Lapatinib; first compound 0.5 µM),relative viability (4EGI-1 + Lapatinib; first compound 1.581 µM),relative viability (4EGI-1 + Lapatinib; first compound 5 µM),relative viability (4EGI-1 + Lapatinib; first compound 50 µM),relative viability (4EGI-1 + Alpelisib; first compound 0.5 µM),relative viability (4EGI-1 + Alpelisib; first compound 1.581 µM),relative viability (4EGI-1 + Alpelisib; first compound 5 µM),relative viability (4EGI-1 + Alpelisib; first compound 50 µM),relative viability (4EGI-1 + Lapatinib; first compound 15.81 µM),relative viability (4EGI-1 + Alpelisib; first compound 15.81 µM)
HCC-827,0.389,0.356,0.316,0.374,0.369,0.909,0.824,0.802,0.959,0.773,0.197,0.201,0.15,0.168,1.07,0.957,0.897,0.85,,
ABC-1,1.42,1.09,1.49,1.11,0.745,1.2,1.27,1.01,0.969,0.533,1.06,1.46,1.24,1.16,1.07,1.03,1.02,0.405,1.17,0.74
NCI-H358,0.219,0.243,0.229,0.234,0.198,,0.635,0.71,0.619,0.261,0.483,0.437,0.603,0.211,0.966,0.817,0.96,0.175,0.395,0.653
NCI-H650,0.336,0.3,0.354,0.309,0.324,0.447,0.388,0.433,0.465,0.295,1.28,,1.12,0.652,1.15,,1.25,0.92,0.918,1.15
SW 1573,0.465,0.529,,0.522,0.338,0.643,0.739,1.11,0.596,0.46,1.33,0.86,1.17,1.17,1.1,0.644,0.879,0.663,0.898,0.785
NCI-H661,0.589,0.552,0.629,0.62,0.553,0.835,0.788,0.809,0.743,0.588,0.666,0.46,0.566,0.342,0.82,0.446,1.26,0.229,0.43,0.535
UMC-11,0.568,0.618,0.594,0.545,0.544,0.45,0.367,0.441,0.296,0.22,1.19,0.825,1.31,0.669,1.06,1.03,1.12,0.306,1.17,0.898
NCI-H1651,0.595,0.592,0.601,0.67,0.506,0.602,0.562,0.5,0.546,0.449,0.993,0.85,0.813,0.185,0.927,0.914,0.913,0.556,0.665,0.906
H3255,0.838,0.682,0.977,0.316,0.358,0.875,0.761,0.867,0.902,0.536,0.254,0.228,0.259,0.279,0.861,0.641,0.756,0.561,0.222,0.473
NCI-H1975,0.392,0.359,0.382,0.328,0.35,0.708,0.691,0.706,0.693,0.473,1.05,0.916,0.916,0.287,0.673,0.81,0.702,0.469,0.93,0.627
NCI-H1793,,0.473,0.482,0.575,0.583,,0.665,0.63,0.916,0.497,0.637,0.886,0.556,0.402,0.868,0.883,0.679,0.577,0.814,0.668
BEN,0.761,0.671,0.757,0.66,0.483,0.554,0.536,0.627,0.501,0.455,0.786,0.854,0.734,0.612,1.05,1.17,1.11,0.915,0.573,1.07
LC-2-ad,0.734,0.774,0.811,0.772,0.514,0.739,,0.702,0.691,0.434,0.988,0.89,0.942,0.175,0.865,0.758,0.858,0.137,0.228,0.822
NCI-H2085,0.546,0.529,0.538,0.535,0.517,0.774,0.812,0.762,0.756,0.546,0.857,0.769,0.807,0.357,1.19,1,1.03,0.626,0.586,0.831
